In PMC3781056, “New Pyrazolopyrimidine Inhibitors of Protein Kinase D as Potent Anticancer Agents for Prostate Cancer Cells” (PLoS ONE, 2013):
“Also recorded” adds a separate entry of the source. Like-named read-outs stand apart in the source and are kept apart here.

Key:
Type in all cases: biochemical
PKCδ = target: T1, PKCδ (Homo sapiens, UniProt Q05655); assay: In vitro radiometric PKC kinase assay
T1 construct: purchased SignalChem (Richmond, BC, Canada)
Method: (§1) The PKC kinase assay was carried out by co-incubating 1 µCi [γ-^32P]ATP, 20 µM ATP, 50 ng of purified PKCα or PKCδ and 5 µg of myelin basic protein 4–14, 0.25 mg/mL bovine serum albumin, 0.1 mg/mL phosphatidylcholine/phosphatidylserine (80/20%) (1 µM), 1 µM phorbol dibutyrate in 50 µL of kinase buffer containing 50 mM Tris-HCl, pH 7.5, 4 mM MgCl2 and 10 mM β-mercaptoethanol. For the CAMK assay, 50 ng of CAMKIIα and 2 µg syntide-2 substrate in 50 µL kinase buffer were incubated with 0.1 mM MgCl2, 1 µCi of [γ-^32P] ATP, 70 µM ATP. 0.5 mM CaCl2 and 30 ng/µL calmodulin were preincubated for 15 min on ice and then added in the kinase reaction. The reactions were incubated at 30°C for 10 min and 25 µL of the reaction was spotted on Whatman P81 filter paper. The filter paper was washed 3 times in 0.5% phosphoric acid, air dried and counted using Beckman LS6500 multipurpose scintillation counter.

PKCα = target: T2, PKCα (Homo sapiens, UniProt P17252); assay: In vitro radiometric PKC kinase assay
T2 construct: purchased SignalChem (Richmond, BC, Canada)
Method: as §1

PKD1 = target: T3, PKD1 (Homo sapiens, UniProt Q15139); assay: ATP competition, Lineweaver-Burk analysis of PKD1 kinase activity; conditions: Lineweaver-Burk plots, increasing ATP
T3 construct: GST; purchased Enzo Life sciences (Farmingdale, NY)
T3 sequence (Q15139 1-912): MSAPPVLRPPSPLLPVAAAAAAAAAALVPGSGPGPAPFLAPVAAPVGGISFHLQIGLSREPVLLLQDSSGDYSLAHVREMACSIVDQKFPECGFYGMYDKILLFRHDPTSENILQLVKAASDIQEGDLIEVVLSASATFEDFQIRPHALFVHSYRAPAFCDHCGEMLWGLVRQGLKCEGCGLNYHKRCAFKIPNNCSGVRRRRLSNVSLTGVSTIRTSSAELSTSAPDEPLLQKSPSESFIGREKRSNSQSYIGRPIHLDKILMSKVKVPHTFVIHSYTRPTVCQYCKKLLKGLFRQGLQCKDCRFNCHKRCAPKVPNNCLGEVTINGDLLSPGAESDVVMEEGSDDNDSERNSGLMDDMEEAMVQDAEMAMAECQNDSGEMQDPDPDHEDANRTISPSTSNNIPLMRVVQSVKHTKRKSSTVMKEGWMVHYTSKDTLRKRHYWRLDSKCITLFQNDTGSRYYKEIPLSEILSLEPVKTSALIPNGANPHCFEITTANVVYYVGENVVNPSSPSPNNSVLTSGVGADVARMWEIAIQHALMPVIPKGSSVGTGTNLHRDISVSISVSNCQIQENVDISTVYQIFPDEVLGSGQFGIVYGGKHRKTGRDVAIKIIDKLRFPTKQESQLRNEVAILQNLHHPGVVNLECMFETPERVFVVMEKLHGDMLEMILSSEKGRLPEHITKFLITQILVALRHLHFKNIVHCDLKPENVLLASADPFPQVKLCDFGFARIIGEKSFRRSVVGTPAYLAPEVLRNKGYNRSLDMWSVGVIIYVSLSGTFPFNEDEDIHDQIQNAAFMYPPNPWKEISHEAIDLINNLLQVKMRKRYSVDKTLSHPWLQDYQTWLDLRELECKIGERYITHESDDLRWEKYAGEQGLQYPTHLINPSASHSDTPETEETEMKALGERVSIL
From the text: Lineweaver-Burk plots were generated by plotting the reciprocal of reaction velocities (1/v) against the reciprocal of ATP concentrations (1/[ATP]) at different compound concentrations. The points were fitted by linear regression.
Data presented were representative of three independent experiments.

Recombinant human PKD3 = target: T4, Recombinant human PKD3 (Homo sapiens, UniProt O94806); assay: Radiometric PKD kinase assay, 10-point IC50
T4 sequence (O94806 1-890): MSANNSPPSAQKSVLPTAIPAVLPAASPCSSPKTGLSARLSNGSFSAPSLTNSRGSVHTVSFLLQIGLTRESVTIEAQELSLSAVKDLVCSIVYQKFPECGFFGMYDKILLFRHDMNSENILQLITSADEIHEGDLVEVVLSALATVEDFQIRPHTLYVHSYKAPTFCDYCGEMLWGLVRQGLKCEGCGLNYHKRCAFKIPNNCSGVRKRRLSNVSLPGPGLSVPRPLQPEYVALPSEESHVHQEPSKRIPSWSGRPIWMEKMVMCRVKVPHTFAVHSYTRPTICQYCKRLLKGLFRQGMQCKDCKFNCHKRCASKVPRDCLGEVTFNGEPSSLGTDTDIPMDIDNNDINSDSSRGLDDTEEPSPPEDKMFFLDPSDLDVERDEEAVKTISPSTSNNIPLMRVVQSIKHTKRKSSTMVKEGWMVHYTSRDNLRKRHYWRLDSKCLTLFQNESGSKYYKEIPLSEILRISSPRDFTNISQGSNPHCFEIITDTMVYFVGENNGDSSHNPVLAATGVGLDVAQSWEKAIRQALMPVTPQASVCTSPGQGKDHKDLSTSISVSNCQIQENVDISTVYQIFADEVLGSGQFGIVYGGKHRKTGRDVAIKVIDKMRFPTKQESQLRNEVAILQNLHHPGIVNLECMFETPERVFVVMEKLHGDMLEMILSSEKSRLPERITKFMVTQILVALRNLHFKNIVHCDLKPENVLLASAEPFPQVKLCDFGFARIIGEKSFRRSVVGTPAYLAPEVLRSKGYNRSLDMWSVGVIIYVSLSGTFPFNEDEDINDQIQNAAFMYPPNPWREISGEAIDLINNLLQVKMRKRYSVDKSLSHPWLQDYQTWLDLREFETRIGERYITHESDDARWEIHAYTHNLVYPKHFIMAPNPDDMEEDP
Method: Recombinant human PKD1, 2, or 3 proteins were incubated in a mixture containing a peptide substrate derived from a PKD substrate, HDAC-5, and 10 different concentrations of the two compounds.
The IC50 values were calculated as the mean ±SEM of at least three independent experiments with triplicate determinations at each concentration of drug in each experiment. The data were plotted as a function of drug concentration and a representative graph is shown.

T1 sequence (Q05655 whole entry): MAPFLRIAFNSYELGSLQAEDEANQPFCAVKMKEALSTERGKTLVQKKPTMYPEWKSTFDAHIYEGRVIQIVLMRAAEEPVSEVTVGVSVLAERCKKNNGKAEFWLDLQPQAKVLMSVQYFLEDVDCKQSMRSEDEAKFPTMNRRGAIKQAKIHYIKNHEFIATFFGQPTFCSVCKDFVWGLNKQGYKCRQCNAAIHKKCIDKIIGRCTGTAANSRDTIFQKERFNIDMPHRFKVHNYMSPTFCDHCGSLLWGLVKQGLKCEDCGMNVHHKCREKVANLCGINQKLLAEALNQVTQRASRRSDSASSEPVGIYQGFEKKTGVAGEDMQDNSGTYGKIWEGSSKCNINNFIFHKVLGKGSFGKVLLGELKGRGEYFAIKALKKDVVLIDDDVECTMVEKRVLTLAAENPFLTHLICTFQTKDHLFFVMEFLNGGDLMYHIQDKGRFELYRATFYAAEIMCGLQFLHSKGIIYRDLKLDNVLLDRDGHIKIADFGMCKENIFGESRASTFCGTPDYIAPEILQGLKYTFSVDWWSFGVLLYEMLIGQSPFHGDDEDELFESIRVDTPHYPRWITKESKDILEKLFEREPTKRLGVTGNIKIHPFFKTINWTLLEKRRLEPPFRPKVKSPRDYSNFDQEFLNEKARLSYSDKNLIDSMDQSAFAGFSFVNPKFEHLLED

CC(C)(C)n1nc(-c2cccc3ccccc23)c2c(N)ncnc21 [Compound 1-NA-PP1, 1-(t-Butyl)-3-(naphthalen-1-yl)-1H-pyrazolo[3,4-d]pyrimidin-4-amine]
inhibition of PKCδ, in words (PKCδ; 0.1, 1 and 10 µM): No significant inhibitory activities; also recorded: did not significantly inhibit | inhibition of PKCα, in words (PKCα; 0.1, 1 and 10 µM): No significant inhibitory activities; also recorded: did not significantly inhibit | mode of PKD1 inhibition with respect to ATP (PKD1): ATP-competitive inhibitors | IC50 (Recombinant human PKD3): 109 nM | IC50 (Recombinant human PKD3; PKD3 IC50, value printed in the figure, representative graph): 104 nM

O=C(c1ccc(Nc2nccc(-c3cc4ccccc4s3)n2)cc1)N1CCC(N2CCCC2)CC1 [IKK-16, reference compound]
inhibition of PKCδ (PKCδ; 10 µM): > 50% | inhibition of PKCα (PKCα; 10 µM): > 50% | mode of PKD1 inhibition with respect to ATP (PKD1): ATP-competitive inhibitors | IC50 (Recombinant human PKD3; mean ± SEM, read-out: IC50 PKD3): 99.7 nM | IC50 (Recombinant human PKD3; value in the figure, representative graph, read-out: PKD3 IC50): 97 nM
